# Results published in paper PMC10447463, “Data-mining unveils structure–property–activity correlation of viral infectivity enhancing self-assembling peptides” (Nature Communications, 2023).
# Columns and labels:
# [1] = test system: HIV-1 infection of TZM-bl cells; assay: HIV-1 infectivity enhancement assay, β-galactosidase luminescence; format: cell-based; settings: for Log10 Inf. rel. to EF-C: log10 of HIV-1 infection of TZM-bl cells relative to EF-C, Fig S15 source data, asymmetric std dev errors
# [2] = format: physicochemical; settings: FigS26; STD prep
# [3] = Zeta-potential measurement; format: physicochemical; settings: for Zeta category ( +1 = if > 4 mV;-1 = if < -4 mV; 0 = -4mV to 4 mV): FigS26; for Zeta-pot. / mV: zeta potential of peptide, Fig S15 source data
# How it was run: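 In this measurement, peptides aggregated for a day at RT in phosphate-buffered saline (pH 7.4, 1 mg/mL) are diluted into 1 mM potassium chloride, and the electrophoretic mobility is translated into zeta potential by Smoluchowski's relation.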
# [4] = Turbidity, derived count rate of scattered light; format: physicochemical; settings: for Log Count Rate: log of derived count rate
# How it was run: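 Samples: 1 mg/mL in PBS pH 7.4 (from DMSO), 1 d at RT, then diluted in 1 mM KCl immediately before measurement. Triplicates, two independent runs averaged.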
# [5] = infectivity class (low / medium / high) of each library peptide, main list in c1-c6, same classes repeated in sub-lists of sequences containing the hydrophobicity/charge patterns P+,H0,P+,H0,P0,H0,P0, P+,H0,P0,H0,P0,H0,P0, P+,H0,P0,H0
# [6] = infectivity class (low / medium / high) of the peptide in the sequence-pattern analysis, Fig. S22-A4, class limits not given
Sequence,"infectivity [1, 5]",Log10 Inf. rel. to EF-C [1],"TEM: 1= fibrils, 0= aggregates (micelle), 0.5 = aggregates and fibrils, -1 = nothing obersved, STD prep [2]",Zeta category ( +1 = if > 4 mV;-1 = if < -4 mV; 0 = -4mV to 4 mV) [3],Zeta-pot. / mV [3] [mV],"Rel-to EFC ([1]; Fig S8 panels B, D, infectivity enhancement relative to EF-C)","n-fold to virus ([1]; Fig S8 panels B, D, infectivity n-fold relative to virus alone)","infectivity [1, 6]","Log Count Rate ([4]; Fig S8 panels A, C, asymmetric log errors)","Log Count Rate ([4]; Fig S8 panels B, D)","Count Rate ([4]; Fig S8 panels B, D, turbidity, derived count rate of scattered light)"
NMWQKAKAQA [JG10],low,-1.376,1,-1 (-1 = if < -4 mV),-5.56,–,–,–,–,–,–
NMWQKFKFQF [JG11],medium,-0.5672,1,1 (+1 = if > 4 mV),9.56,–,–,–,–,–,–
KIKIQIMWNQ [VH15],medium,-0.2495,1,0 (0 = -4mV to 4 mV),2.96,–,–,–,–,–,–
KIKIQIAMWQ [JR4],medium,-0.4109,1,1 (+1 = if > 4 mV),11.3,–,–,–,–,–,–
KIKIQINAWQ [JR3-II],medium,-0.2703,1,1 (+1 = if > 4 mV),13.1,–,–,–,–,–,–
KIKIQINMAQ [JR2],medium,-0.6722,1,0 (0 = -4mV to 4 mV),3.07,–,–,–,–,–,–
RGDSGGGGGGKIKIQIC [TM114 / RC17],–,-0.0628,–,–,16.7,0.8654,36.36,high,4.018,4.018,10416.2
KIKIQINMWA [JR1],medium,-0.1642,1,1 (+1 = if > 4 mV),14.7,–,–,–,–,–,–
NMWQKIKIQI [JG9],medium,-0.6877,1,1 (+1 = if > 4 mV),8.26,–,–,–,–,–,–
KIKIQIRGD [MG6],low,-1.678,1,1 (+1 = if > 4 mV),6.43,–,–,low,–,–,–
NMWQKIKQII [JG8],low,-1.5971,0,0 (0 = -4mV to 4 mV),-0.213,–,–,–,–,–,–
CKIKIQIRGD [psis21],medium,-0.4842,1,–,7.157,–,–,–,–,–,–
KIKIQIMQWN [VH16],–,-0.1454,1,1 (+1 = if > 4 mV),9.44,–,–,high,–,–,–
